{"source": "paper PMC3155243", "about": "(Molecular cancer therapeutics, 2011)", "key": {"[1]": {"details": "human, in vivo"}, "advanced solid tumours": {"tested_on": "advanced solid tumours", "details": "bortezomib days 1, 4, 8 and 11 with paclitaxel days 1 and 8; cited from earlier work"}, "proteasome": {"tested_on": "proteasome", "details": "bortezomib dose 0.7 mg/m^2; cited from earlier work"}, "[2]": {"details": "with bortezomib and paclitaxel; cited from earlier work"}, "[3]": {"tested_on": "BMK cancer cell lines and allograft tumors with RAS/RAF/MAPK pathway activation", "details": "baby mouse kidney (BMK) epithelial cell model; cited from earlier work"}, "clinical": {"experiment": "clinical", "details": "human, plasma, intravenous"}, "[4]": {"experiment": "Paclitaxel plasma pharmacokinetics"}, "[5]": {"details": "Dose Level 1: paclitaxel 40 mg/m^2 + bortezomib 0.7 mg/m^2"}, "[6]": {"details": "Dose Level 2: paclitaxel 45 mg/m^2 + bortezomib 0.75 mg/m^2"}, "[7]": {"details": "Dose Level 4: paclitaxel 60 mg/m^2 + bortezomib 1.0 mg/m^2"}}, "data": [{"smiles": "CC(C)C[C@H](NC(=O)[C@H](Cc1ccccc1)NC(=O)c1cnccn1)B(O)O", "note": "[bortezomib]", "values": [{"measurement": "MTD of bortezomib", "setting": "[1]", "value": 1.0, "unit": "mg/m^2"}, {"measurement": "recommended phase II dose of bortezomib", "setting": "advanced solid tumours", "value": 1.3, "unit": "mg/m^2"}, {"measurement": "effect on proteasome function", "setting": "proteasome", "value": "effectively inhibit proteasome function"}]}, {"smiles": "N.N.O=C([O-])C1(C(=O)[O-])CCC1.[Pt+2]", "note": "[carboplatin]", "values": [{"measurement": "recommended phase II dose of carboplatin", "setting": "[2]", "value": 6, "unit": "AUC"}]}, {"smiles": "CC(=O)O[C@H]1C(=O)[C@@]2(C)[C@H]([C@H](OC(=O)c3ccccc3)[C@]3(O)C[C@H](OC(=O)[C@H](O)[C@@H](NC(=O)c4ccccc4)c4ccccc4)C(C)=C1C3(C)C)[C@]1(OC(C)=O)CO[C@@H]1C[C@@H]2O", "note": "[paclitaxel]", "values": [{"measurement": "effect on BIM", "setting": "[3]", "value": "induced selective BIM accumulation"}, {"measurement": "Tmax", "setting": "clinical", "value": 1, "unit": "h"}, {"measurement": "clearance", "setting": "clinical", "value": "283 to 800", "unit": "mL/min"}, {"measurement": "AUC (last)", "setting": "[4]; [5]", "value": "1140 ± 450", "unit": "ng·h/mL"}, {"measurement": "T1/2", "setting": "[4]; [5]", "value": "1.75 ± 1.45", "unit": "h"}, {"measurement": "AUC (last)", "setting": "[4]; [6]", "value": "1430 ± 900", "unit": "ng·h/mL"}, {"measurement": "T1/2", "setting": "[4]; [6]", "value": "0.69 ± 0.20", "unit": "h"}, {"measurement": "AUC (last)", "setting": "[4]; Dose Level 3: paclitaxel 51 mg/m^2 + bortezomib 0.86 mg/m^2", "value": "1700 ± 370", "unit": "ng·h/mL"}, {"measurement": "AUC (last)", "setting": "[4]; [7]", "value": "2290 ± 740", "unit": "ng·h/mL"}, {"measurement": "T1/2", "setting": "[4]; [7]", "value": "1.83 ± 0.86", "unit": "h"}, {"measurement": "clearance", "setting": "[4]; [7]", "value": 27.2, "unit": "L/h"}]}]}
